The values below come from patent US5126337A, “Thiazetoquinoline-3-carboxylic acid derivative and a pharmaceutical composition comprising the same” (priority 1989, dated 1992).

≈ marks a conversion by molar mass, not a printed value. Where a name gives a salt, the structure may show the parent alone. Read-outs that look alike come from different tables or passages of the source.

Series [1] concerns Klebsiella pneumoniae PCI-602. Nature of the series: Antibacterial spectrum, MIC by twofold agar dilution method. In kind it is cell-based. The method, then: Minimum inhibitory concentrations (MIC) of test compounds were determined by the twofold agar dilution method (Chemotherapy, 29(1), 76(1981)). Overnight cultures in Mueller-Hinton broth were suspended by buffered saline gelatin. One loopful of the bacterial suspension (10^6 or 10^8 colony-forming units/ml) was incubated onto the plates containing test compounds. The plates were incubated for 18 hrs at 37° C. The MIC was defined by the lowest concentration of the drug that inhibited visible growth of bacteria.
(In general: Agar dilution tests growth on a series of plates holding different concentrations.)

The subject of series [2] is Enterobacter cloacae HNR 1946. The series is described as above. It is filed as cell-based. The conditions noted are these: HNR1946, 10^6 cfu/ml, clinically isolated strain, Gram -, 18 hrs at 37° C. As to the method:
(§1) Overnight cultures in Mueller-Hinton broth were suspended by buffered saline gelatin. One loopful of the bacterial suspension (10^6 or 10^8 colony-forming units/ml) was incubated onto the plates containing test compounds. The plates were incubated for 18 hrs at 37° C. The MIC was defined by the lowest concentration of the drug that inhibited visible growth of bacteria.

The subject of series [3] is Serratia marcescens HNR 1544. The description is as above. The conditions noted are these: HNR1544, 10^6 cfu/ml, clinically isolated strain, Gram -, 18 hrs at 37° C. In kind it is cell-based. The method, then: as §1
For series [4], the system named is Serratia marcescens IAM 1184. The description is as above. It is filed as cell-based. The conditions noted are these: IAM1184, 10^6 cfu/ml, standard laboratory strain, Gram -, 18 hrs at 37° C. The method, then:
as §1

In series [5] the test system is Staphylococcuss aureus HPC 527. Described as above. The following applies: 10^6 cfu/ml; clinically isolated strain, Gram +; 18 hrs at 37° C. In kind it is cell-based. As to the method:
as §1

Series [6] relates to Pseudomonas aeruginosa IFO 3445. Described as above. It is filed as cell-based. The following applies: IFO3445, 10^6 cfu/ml, standard laboratory strain, Gram -, 18 hrs at 37° C. As to the method:
as §1

Series [7] concerns Enterococcus faecalis HPC 948. The series is described as above. In kind it is cell-based. The conditions noted are these: HPC948, 10^6 cfu/ml, clinically isolated strain, Gram +, 18 hrs at 37° C. The method, then: as §1
Series [8] has as its system Enterobacter cloacae HNR 1941. The description is as above. It is filed as cell-based. The conditions noted are these: HNR1941, 10^6 cfu/ml, clinically isolated strain, Gram -, 18 hrs at 37° C. As to the method:
as §1

Series [9] relates to Acinetobacter calcoaceticus HNR 939. The series is described as above. In kind it is cell-based. The following applies: HNR939, 10^6 cfu/ml, clinically isolated strain, Gram -, 18 hrs at 37° C. The method, then:
as §1

Series [10] concerns Acinetobacter calcoaceticus HNR 904. The series is described as above. It is filed as cell-based. The conditions noted are these: HNR904, 10^6 cfu/ml, clinically isolated strain, Gram -, 18 hrs at 37° C. The method, then: as §1
For series [11], the system named is Escherichia coli NIHJ JC-2. The description is as above. It is filed as cell-based. The following applies: NIHJJC2, 10^6 cfu/ml, standard laboratory strain, Gram -, 18 hrs at 37° C. As to the method: as §1
The test system of series [12] is Enterobacter cloacae HNR 1939. Described as above. In kind it is cell-based. The conditions noted are these: HNR1939, 10^6 cfu/ml, clinically isolated strain, Gram -, 18 hrs at 37° C. As to the method: as §1
The test system of series [13] is Klebsiella pneumoniae HNR 858. The series is described as above. In kind it is cell-based. The conditions noted are these: HNR858, 10^6 cfu/ml, clinically isolated strain, Gram -, 18 hrs at 37° C. The method, then: as §1
Series [14] has as its system Enterococcus faecalis HPC 975. The series is described as above. In kind it is cell-based. The following applies: HPC975, 10^6 cfu/ml, clinically isolated strain, Gram +, 18 hrs at 37° C. The method, then:
as §1

Series [15] concerns Serratia marcescens HNR 1792. The series is described as above. It is filed as cell-based. The conditions noted are these: HNR1792, 10^6 cfu/ml, clinically isolated strain, Gram -, 18 hrs at 37° C. The method, then: as §1
In series [16] the test system is Staphylococcuss aureus HPC 292. Described as above. In kind it is cell-based. As to the method: as §1
For series [17], the system named is Serratia marcescens HNR 1767. The description is as above. It is filed as cell-based. The following applies: HNR1767, 10^6 cfu/ml, clinically isolated strain, Gram -, 18 hrs at 37° C. As to the method:
as §1

The subject of series [18] is Enterococcus faecalis HPC 984. Described as above. In kind it is cell-based. The conditions noted are these: HPC984, 10^6 cfu/ml, clinically isolated strain, Gram +, 18 hrs at 37° C. As to the method:
as §1

The test system of series [19] is Acinetobacter calcoaceticus HNR 916. Described as above. In kind it is cell-based. The conditions noted are these: HNR916, 10^6 cfu/ml, clinically isolated strain, Gram -, 18 hrs at 37° C. The method, then: as §1
In series [20] the test system is Pseudomonas aeruginosa HNR 1489. Described as above. In kind it is cell-based. The following applies: HNR1489, 10^6 cfu/ml, clinically isolated strain, Gram -, 18 hrs at 37° C. The method, then:
as §1

Series [21] deals with Klebsiella pneumoniae HNR 869. The series is described as above. It is filed as cell-based. The following applies: HNR869, 10^6 cfu/ml, clinically isolated strain, Gram -, 18 hrs at 37° C. As to the method: as §1
Series [22] has as its system Staphylococcuss aureus HPC 308. The description is as above. It is filed as cell-based. The conditions noted are these: 10^6 cfu/ml; clinically isolated strain, Gram +; 18 hrs at 37° C. The method, then:
as §1

The test system of series [23] is Klebsiella pneumoniae HNR 828. The series is described as above. In kind it is cell-based. The following applies: HNR828, 10^6 cfu/ml, clinically isolated strain, Gram -, 18 hrs at 37° C. The method, then:
as §1

Series [24] concerns Pseudomonas aeruginosa HNR 1472. The description is as above. The conditions noted are these: HNR1472, 10^6 cfu/ml, clinically isolated strain, Gram -, 18 hrs at 37° C. In kind it is cell-based. As to the method:
as §1

The next series relates to Enterobacter cloacae 963. The series is described as above. It is filed as cell-based. The following applies: 10^6 cfu/ml, standard laboratory strain, Gram -, 18 hrs at 37° C. As to the method:
as §1

Series [25] deals with Pseudomonas aeruginosa HNR 1537. The series is described as above. The following applies: HNR1537, 10^6 cfu/ml, clinically isolated strain, Gram -, 18 hrs at 37° C. In kind it is cell-based. The method, then: as §1
Series [26] concerns Staphylococuss aureus FDA 209PJC-1. Described as above. It is filed as cell-based. The following applies: 10^6 cfu/ml; standard laboratory strain, Gram +; 18 hrs at 37° C. The method, then: as §1
Series [27] concerns Male mice of ddY strain. Nature of the series: Convulsion inducing activity in combination with fenbufen. The following applies: 30 min after fenbufen 100 mg/kg orally.
Protocol: Male mice of ddY strain, 5 weeks old, were used. Fenbufen suspended in 0.5% carboxymethyl cellulose was administered orally at a dose of 100 mg/kg. After thirty minutes, test compounds suspended in 0.5% carboxymethyl cellulose were injected intraperitoneally (i.p.) at a dose of 100 mg/kg or 300 mg/kg.
For series [28], the system named is Male mice of ddY strain. Briefly: Acute toxicity (i.v.). It is filed as in vivo. The conditions noted are these: 270 mg/kg (i.v.). As to the method: Male mice of ddY strain, 4 weeks old, were used. Test compounds were solved in 0.1N--NaOH solution and neutralized with 0.1N--HCl solution. Each compound was administered intravenously (i.v.) at a dose of 270 mg/kg. […]

[29] abbreviates: PCI602, 10^6 cfu/ml, standard laboratory strain, Gram -, 18 hrs at 37° C, read-out: MIC.

Consider `CC1Sc2c(C(=O)O)c(=O)c3cc(F)c(N4CC[C@H](N(C)C)C4)c(F)c3n21` (stereo partly drawn) [Example 37, 7-((S)-3-Dimethylamino-1-pyrrolidinyl)-6,8-difluoro-1-methyl-4-oxo-1H,4H-[1,3]thiazeto[3,2-a]quinoline-3-carboxylic acid], for which the MIC (usually the smallest concentration in the dilution series that meets the test's criterion for growth inhibition) in series [1] (setting [29]) was 0.05 µg/mL (≈ 0.126 µM); in [2] it was 1.56 µg/mL (≈ 3.95 µM); in series [3], 0.2 µg/mL (≈ 0.506 µM); in series [4], 0.39 µg/mL (≈ 0.986 µM); in series [5] it was 0.2 µg/mL (≈ 0.506 µM); in series [6], 0.78 µg/mL (≈ 1.97 µM). Moreover, the minimum inhibitory concentration (MIC) in series [7] was 3.13 µg/mL (≈ 7.92 µM); in series [8] it was 25 µg/mL (≈ 63.2 µM); in [9], 1.56 µg/mL (≈ 3.95 µM); in series [10], 25 µg/mL (≈ 63.2 µM); in [11], 0.1 µg/mL (≈ 0.253 µM); in series [12] it was 0.78 µg/mL (≈ 1.97 µM). For the same compound, the MIC was determined as 0.78 µg/mL (≈ 1.97 µM) in [13]; 12.5 µg/mL (≈ 31.6 µM) in series [14]; 12.5 µg/mL (≈ 31.6 µM) in series [15]; 6.25 µg/mL (≈ 15.8 µM) in [16] (18 h); 25 µg/mL (≈ 63.2 µM) in series [17]; 0.78 µg/mL (≈ 1.97 µM) in [18]. For the same compound, the MIC in series [19] was 0.2 µg/mL (≈ 0.506 µM); in series [20], 0.78 µg/mL (≈ 1.97 µM); in series [21] it was 3.13 µg/mL (≈ 7.92 µM); in series [22] it was 3.13 µg/mL (≈ 7.92 µM); in series [23] it was 12.5 µg/mL (≈ 31.6 µM); in series [24] it was 50 µg/mL (≈ 126 µM). Moreover, the minimal inhibitory concentration (MIC) with Enterobacter cloacae 963 was 0.2 µg/mL (≈ 0.506 µM); in series [25], 100 µg/mL (≈ 253 µM); in series [26], 0.2 µg/mL (≈ 0.506 µM).

On to `CC1Sc2c(C(=O)O)c(=O)c3cc(F)c(N4CCC(N(C)C)C4)c(Cl)c3n21` (stereo not shown) [Example 39, 8-Chloro-7-(3-dimethylamino-1-pyrrolidinyl)-6-fluoro-1-methyl-4-oxo-1H, 4H-[1,3]thiazeto[3,2-a]quinoline-3-carboxylic acid], for which the minimum inhibitory concentration (MIC) in [1] (setting [29]) is 0.025 µg/mL (≈ 0.0607 µM); in [2] it was 0.78 µg/mL (≈ 1.89 µM); in [3], 0.2 µg/mL (≈ 0.486 µM); in series [4], 0.39 µg/mL (≈ 0.947 µM); in series [5], 0.2 µg/mL (≈ 0.486 µM); in series [6], 1.56 µg/mL (≈ 3.79 µM). Moreover, the MIC was 1.56 µg/mL (≈ 3.79 µM) in [7]; 12.5 µg/mL (≈ 30.3 µM) in [8]; 1.56 µg/mL (≈ 3.79 µM) in series [9]; 6.25 µg/mL (≈ 15.2 µM) in series [10]; 0.1 µg/mL (≈ 0.243 µM) in series [11]; 0.78 µg/mL (≈ 1.89 µM) in series [12]. Further, the minimal inhibitory concentration (MIC) came to 0.78 µg/mL (≈ 1.89 µM) in series [13]; 12.5 µg/mL (≈ 30.3 µM) in [14]; 12.5 µg/mL (≈ 30.3 µM) in [15]; 12.5 µg/mL (≈ 30.3 µM) in series [16] (10^6 cfu/ml, clinically isolated strain, Gram +, 18 hrs at 37° C, read-out: MIC); 12.5 µg/mL (≈ 30.3 µM) in series [17]; 0.39 µg/mL (≈ 0.947 µM) in series [18]. Moreover, the MIC in series [19] was 0.1 µg/mL (≈ 0.243 µM); in series [20] it was 1.56 µg/mL (≈ 3.79 µM); in series [21], 3.13 µg/mL (≈ 7.6 µM); in series [22] it was 1.56 µg/mL (≈ 3.79 µM); in [23] it was 12.5 µg/mL (≈ 30.3 µM); in series [24], 25 µg/mL (≈ 60.7 µM). Besides, the MIC with Enterobacter cloacae 963 was found to be 0.39 µg/mL (≈ 0.947 µM); in series [25], 50 µg/mL (≈ 121 µM); in [26], 0.2 µg/mL (≈ 0.486 µM).

The compound `O=C(O)c1cn(C2CC2)c2cc(N3CCNCC3)c(F)cc2c1=O` [Reference Drug A, ciprofloxacin hydrochloride, reference compound] had an MIC in series [1] (PCI602, 18 h) of 0.012 µg/mL. For the same compound, the “Number of convulsion induced/Number of animals” value is reported as 4/6 in the series with Male mice of ddY strain [27] (100 mg/kg (i.p.)) and 6/6 in the series with Male mice of ddY strain [27] (300 mg/kg (i.p.)). The “Number of death/Number of animals” value in the series with Male mice of ddY strain [28] is given as 7/10.
